The source of these data is publication PMC11385396 (Journal of Ginseng Research, 2024).

Common to all, as to type: in vivo, Sprague-Dawley rats
One test concerns coagulation factor II. Kind of test: Plasma coagulation factor II in rats. The following applies: 12h after last dose of one week gavage.
A further test deals with coagulation factor X. The experiment in a line: Plasma coagulation factor X in rats. The following applies: 12h after last dose of one week gavage.
Another test is described as follows: Coagulation function. Particulars: rats, 12h after last dose of one week gavage; compared with the control group.

Turning to `CC(=O)CC(c1ccccc1)c1c(O)c2ccccc2oc1=O` (stereo not shown) [Warfarin], the “plasma coagulation factor II” value in the test on coagulation factor II is “reduce”. In addition, the “plasma coagulation factor X” value in the test on coagulation factor X is reported as “reduce”. For the same compound, in “Coagulation function”, the APTT result was “significantly increased” and the INR entry is given as “significantly increased”.
